Results: patent US11591596B2, “Compounds and compositions including phosphorothioated oligodeoxynucleotide, and methods of use thereof” (City of Hope, priority 2015, dated 2023)

How the values were obtained:
miR-126 = assay: In vitro and in vivo uptake and miR-126 silencing (K562, HUVEC, CD34+CD38- cells, murine CML BM, LTHSC, EC, mice); set-up: species or system human and mouse; settings: 500 nM in vitro; 5 mg/kg iv in vivo
Description: FIGS. 23A-23K. […] Uptake test measured by flow cytometric analysis at 4 hours (FIG. 23A) and 24 hours (FIG. 23B) after addition of CpG-miR-126 inhibitor-Cy3 (CpG), Ab-NPs (Ab-NP) or TF-NPs (TF-NP) containing miR-126 inhibitor-Cy3, or naked miR-126 inhibitor-Cy3 (labeled as Control in FIGS. 23A and B) in K562 cells. The experiment was replicated twice. miR-126 expression in K562 was measured by Q-RT-PCR at 24 hours (n=3) (FIG. 23C). Uptake in HUVEC (FIG. 23D), human normal (FIG. 23E) and CML (FIG. 23F) CD34^+CD38^− cells at 4 hours after addition of CpG-miR-126 inhibitor-Cy3 (500 nM) was measured by flow cytometry. miR-126 expression in HUVEC (FIG. 23G), normal (FIG. 23H) and CML (FIG. 23I) CD34^+CD38^− cells treated with CpG-miR-126 inhibitor (500 nM) for 24 hours is shown (n=4). […]
FIGS. 25A-25O. […] Murine CML BM, LTHSC and EC cells were treated with CpG-miR-126 inhibitor-Cy3 (500 nM) for 4 hours and then Cy3^+ cells were detected by flow cytometry (FIG. 25A). The cells were also collected at 24 hours and miR-126 expression was determined by Q-RT-PCR (FIG. 25B). Cell cycling was measured by EDU staining at 72 hours after addition of CpG-miR-126 inhibitor in CML BM LTHSC. […] CML mice were treated with CpG-miR-126 inhibitor-Cy3 with one dose (5 mg/kg, iv injection) and Cy3 uptake in BM, LTHSC and EC was measured at 16 hours after treatment by flow cytometry (FIG. 25D). […]

[1] = test system: CML (K562) and AML cell lines (KG1A, MV4-11, Molm13, NB4, OCI and HL60); assay: Uptake in AML and CML cell lines, Cy3 by flow cytometry; assay type: cell-based, human; settings: 4 hours
Description: FIGS. 3A-3G are flow cytometry histograms showing results of CpG-anti-miR-126 uptake in AML and CML cell lines. Cells were cultured with miR126-inhibitor-Cy3 (Cy3-200 nM0, human CD45 (Ab-200 nM) or Transferrin (TF-200 nM)-conjugated nanoparticles (NP) containing antagomiR-126-Cy3, CpG-miR126 inhibitor-Cy3 (CpG-Cy3-200 nM and 500 nM) for 4 hours, then uptake was analyzed by measuring Cy3 expression in these cells by flow cytometry. FIG. 3A is a histogram showing uptake in K562 cells. FIG. 3B is a histogram showing uptake in KG1A AML cells. FIG. 3C is a histogram showing uptake in MV4-11 AML cells. FIG. 3D is a histogram showing uptake in Molm13 AML cells. FIG. 3E is a histogram showing uptake in NB4 AML cells. FIG. 3F is a histogram showing uptake in OCI AML cells. FIG. 3G is a histogram showing uptake in HL60 AML cells.
CML (K562) (FIG. 3A) and AML cell lines (KG1A, MV4-11, Molm13, NB4, OCI and HL60) (FIGS. 3B-3G) were cultured with anti-miR126 inhibitor-Cy3 (Cy3-200 nM) alone, human CD45 (Ab-200 nM) or Transferrin (TF-200 nM)-conjugated nanoparticles (NP) containing anti-miR126-Cy3 or unformulated CpG-anti-miR126 inhibitor—Cy3 in two concentrations (200 nM and 500 nM) for 4 hours, the uptake was analyzed by measuring Cy3 expression in these cells by flow cytometry.

“5′ G*G*T GCA TCG ATG CAGG*G*G* G*G (SEQ ID NO: 1) xxxxx mCmGmC mAmUmU mAmUmU mAmCmU mCmAmC mGmGmU mAmCmG mA (SEQ ID NO: 17) 3′ [CpG-anti-miR126]” was tested, and the “uptake and gene silencing effects” value (miR-126) was “Effective in vitro and in vivo uptake and gene silencing effects”, the “internalization (Cy3 uptake)” value ([1]; 200 nM and 500 nM, no transfection reagents) was “quickly and dose-dependently internalized” and the “level of internalization compared with other oligonucleotides including NP-formulated anti-miR126 inhibitor” value ([1]; absence of any transfection reagents) was “exceeded that of all other oligonucleotides”.
